Results taken from patent publication US20220313634A1, “AGENT FOR THE PROPHYLACTIC AND/OR SUPPORTIVE THERAPEUTIC TREATMENT OF PARKINSON'S DISEASE” (priority 2017, published 2022).

System: Parkinson's patients
Assay: Patient studies of butyric acid/butyrate given with physician-directed medication
Format: in vivo, human
Experimental: The effect of butyric acid/butyrate was investigated in patient studies in which more than 1,000 test subjects have participated for at least one year each. A total amount of 6 g butyric acid or butyrate (as salt) was administered together with the physician-directed medication (levodopa etc.) in three daily doses with meals in the morning, at noon and in the evening.
This is especially important because the usual medication for Parkinson's patients, not only with levodopa, can lead to considerable side effects such as dizziness, nausea, tachyarrhythmia, psychosis, dyskinesia and circulatory problems.

Q: How did the “general condition, in particular with respect to the motor functions” value (more than 1,000 test subjects, at least one year each, total 6 g butyric acid or butyrate (as salt) in three daily doses with meals, together with levodopa etc.) turn out when CCCC(=O)O [butyric acid/butyrate, butyric acid] was run?
A: Significant improvements

Q: What about the “reduction of the amount of dopamine used by Parkinson's patients” value (patients treated with butyric acid/butyrate) of the same compound?
A: at least 50%

Q: And the “reduction of the amount of dopamine used by Parkinson's patients, in some cases” value (patients treated with butyric acid/butyrate, in some cases)?
A: up to 90%
